The values that follow come from patent publication US6420119B1, “Methods of diagnosing and treating urinary incontinence relating to collagen proteolysis in pelvic supporting tissue” (The Board of Trustees of the Leland Stanford Jr. University, priority 1999, dated 2002).

Counter-ions that a name gives are not always drawn.

For one data set, the system named is collagenase. To be noted: human cervix, intravenous; cited from earlier work.
In the next data set the test system is TIMPs. To be noted: cultured rabbit uterine cervical fibroblasts; cited from earlier work.
Data set [1] relates to matrix metalloproteinases. To be noted: human endometrium during the menstrual cycle; cited from earlier work.
Data set [2] concerns procollagenase. As to conditions: cultured rabbit uterine cervical fibroblasts; cited from earlier work.
For data set [3], the system named is procollagenase. To be noted: pregnant guinea pig cervix; cited from earlier work.
The subject of the next data set is TIMP-1. Nature of the data set: TIMP-1 mRNA expression in cultured human endometrial stromal cells. To be noted: vs control cells. Type of data set: cell-based. The source says:
(§1) (a) GnRH Agonist: Trophoblast invasion is regulated in part by MMP-9 which can be inhibited by both TIMP-1 and TIMP-3 (25). […] Moreover, the expression of TIMP-1 appeared to be affected to a much greater extent than that of TIMP-3 (26).
(§2) Our laboratory has examined the ability of IL-1β and transforming growth factor-β (TGF-13) to regulate MMP-9, TIMP-1, and TIMP-3 mRNA expression in cultured human endometrial stromal cells (28). In these cultured endometrial stromal cells, TIMP-1 and TIMP-3 but not MMP-9 mRNA were expressed.

A further data set relates to TIMP-3. Nature of the data set: TIMP-3 mRNA expression in cultured human endometrial stromal cells. As to conditions: vs control cells. It is filed as cell-based.
Excerpt: as §1, §2

The conditions of data set [4]: patients with advanced lung carcinoma; relative to levels required for MMP inhibition in vitro; cited from earlier work.
The next data set relates to MMP-9. Nature of the data set: MMP-9 mRNA expression in cultured human endometrial stromal cells. Type of data set: cell-based.
Excerpt: as §2

Consider `C[C@]12CC[C@H](OS(=O)(=O)O)CC1=CC[C@@H]1[C@@H]2CC[C@]2(C)C(=O)CC[C@@H]12` [DHEAS, dehydroepiandosterone sulfate], for which the “increase in collagenase activity” value in the data set on collagenase was “over 150%”.
With `CC(=O)[C@H]1CC[C@H]2[C@@H]3CCC4=CC(=O)CC[C@]4(C)[C@H]3CC[C@]12C` [progesterone], the “level of TIMPs in the culture media” value in the data set with TIMPs is given as “increased”. Also, the “gene expression of matrix metalloproteinases” value in [1] is on record as “repressed”. In addition, the “levels of procollagenase in the culture medium” value with procollagenase [2] is “declined”.
Take `C[C@]12CC[C@@H]3c4ccc(O)cc4CC[C@H]3[C@@H]1CC[C@@H]2O` [17β-estradiol]: the “level of TIMPs in the culture media” value in the data set with TIMPs is “increased”. For the same molecule, the procollagenase activity result in the data set with procollagenase [3] is “doubled”. Moreover, the “levels of procollagenase in the culture medium” value with procollagenase [2] is “declined”.
Consider TGF-β, for which, in the data set on TIMP-1, the “TIMP-1 mRNA expression” value was “augmented”. Also, in the data set on TIMP-3, the “TIMP-3 mRNA expression” value is on record as “augmented”.
As for `CNC(=O)[C@@H](NC(=O)[C@H](CC(C)C)[C@H](O)C(=O)NO)C(C)(C)C` [Marimastat], the plasma levels entry in [4] is “substantially higher than those required for MMP inhibition in vitro”.
For IL-1β: cytokine, in the data set on MMP-9, the MMP-9 expression entry was “stimulation”. For the same molecule, in the data set on TIMP-1, the “TIMP-1 mRNA expression” value was “decrease”. The “TIMP-3 mRNA expression” value in the data set on TIMP-3 is “decrease”. In addition, in the data set on procollagenase [3], the procollagenase production entry is “two-fold increase”.
